According to ChEMBL document CHEMBL4364276, “Discovery of 4-phenyl-2H-benzo[b][1,4]oxazin-3(4H)-one derivatives as potent and orally active PI3K/mTOR dual inhibitors” (Eur J Med Chem, 2019):

What follows are molecules tested against PI3-kinase p110-delta/p85-alpha (Homo sapiens, UniProt O00329) (assay: Inhibition of recombinant human full length N-terminal GST-tagged PI3Kdelta (1 to 1044 residues)/PIK3R1 (1 to 724 residues) expressed in baculovirus expression system using PIP2 as substrate incubated for 2 hrs by ADP-Glo assay). Settings: not given.
Chain of PI3-kinase p110-delta/p85-alpha (P27986 whole entry, the tested form may be a part): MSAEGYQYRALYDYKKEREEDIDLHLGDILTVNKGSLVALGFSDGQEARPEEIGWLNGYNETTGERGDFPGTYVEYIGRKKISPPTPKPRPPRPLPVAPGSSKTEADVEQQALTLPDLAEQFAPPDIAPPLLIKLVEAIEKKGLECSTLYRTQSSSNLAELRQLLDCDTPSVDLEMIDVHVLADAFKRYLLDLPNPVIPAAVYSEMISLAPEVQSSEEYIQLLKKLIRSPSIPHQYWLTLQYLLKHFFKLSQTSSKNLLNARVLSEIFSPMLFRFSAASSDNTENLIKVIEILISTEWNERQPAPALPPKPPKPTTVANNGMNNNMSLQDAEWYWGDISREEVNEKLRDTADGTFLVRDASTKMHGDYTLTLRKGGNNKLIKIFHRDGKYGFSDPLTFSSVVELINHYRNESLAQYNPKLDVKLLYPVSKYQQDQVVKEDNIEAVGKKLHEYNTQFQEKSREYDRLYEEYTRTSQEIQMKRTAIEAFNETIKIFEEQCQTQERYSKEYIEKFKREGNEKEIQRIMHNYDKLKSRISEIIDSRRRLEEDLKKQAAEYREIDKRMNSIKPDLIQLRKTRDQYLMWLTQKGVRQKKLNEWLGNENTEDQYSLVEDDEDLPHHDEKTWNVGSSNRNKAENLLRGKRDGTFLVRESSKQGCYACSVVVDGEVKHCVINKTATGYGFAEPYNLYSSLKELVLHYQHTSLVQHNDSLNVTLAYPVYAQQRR
Chain of PI3-kinase p110-delta/p85-alpha (O00329 whole entry, the tested form may be a part): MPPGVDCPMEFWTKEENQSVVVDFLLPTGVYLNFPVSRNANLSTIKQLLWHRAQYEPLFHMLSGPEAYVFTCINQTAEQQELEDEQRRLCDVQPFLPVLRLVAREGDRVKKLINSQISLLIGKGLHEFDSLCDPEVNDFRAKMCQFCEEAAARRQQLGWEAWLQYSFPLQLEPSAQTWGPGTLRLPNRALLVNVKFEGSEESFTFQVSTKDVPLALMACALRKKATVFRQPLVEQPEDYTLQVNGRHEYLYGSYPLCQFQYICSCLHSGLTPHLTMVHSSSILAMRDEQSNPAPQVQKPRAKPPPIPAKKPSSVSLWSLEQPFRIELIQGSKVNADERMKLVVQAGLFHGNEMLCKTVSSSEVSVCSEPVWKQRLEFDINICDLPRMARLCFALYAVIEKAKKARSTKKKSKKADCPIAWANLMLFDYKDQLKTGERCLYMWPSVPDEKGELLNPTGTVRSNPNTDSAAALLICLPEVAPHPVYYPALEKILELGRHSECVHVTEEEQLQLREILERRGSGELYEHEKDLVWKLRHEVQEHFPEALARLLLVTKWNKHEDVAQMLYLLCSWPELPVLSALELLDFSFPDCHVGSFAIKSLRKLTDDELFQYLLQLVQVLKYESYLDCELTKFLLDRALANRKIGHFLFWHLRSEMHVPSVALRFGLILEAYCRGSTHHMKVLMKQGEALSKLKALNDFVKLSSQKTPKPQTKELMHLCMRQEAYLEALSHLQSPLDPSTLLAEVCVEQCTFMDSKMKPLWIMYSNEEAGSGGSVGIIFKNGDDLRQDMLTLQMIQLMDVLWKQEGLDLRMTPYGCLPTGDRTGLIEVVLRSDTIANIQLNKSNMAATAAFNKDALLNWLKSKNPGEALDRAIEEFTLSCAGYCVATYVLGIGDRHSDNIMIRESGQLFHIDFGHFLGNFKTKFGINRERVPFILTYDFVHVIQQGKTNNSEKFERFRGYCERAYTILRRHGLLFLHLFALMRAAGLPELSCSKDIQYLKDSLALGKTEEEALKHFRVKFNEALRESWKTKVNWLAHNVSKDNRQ

Row | Structure (SMILES) | IC50
1 | O=C1COc2ccc(-c3cnc(Cl)c(NS(=O)(=O)c4ccc(F)cc4)c3)cc2N1C1CCCCC1 | 0.079 µM
2 | O=C1COc2ccc(-c3ccc(O)cc3)cc2N1C1CCCCC1 | > 1 µM
3 | O=C1COc2ccc(-c3cccc(NS(=O)(=O)c4ccc(F)cc4)c3)cc2N1c1ccc(Cl)cc1 | > 1 µM
4 | O=C1COc2ccc(-c3cnc(Cl)c(NS(=O)(=O)c4ccc(F)cc4)c3)cc2N1 | 0.092 µM
5 | CC(C)N1C(=O)COc2ccc(-c3cnc4ccccc4c3)cc21 | > 1 µM
6 | O=C1COc2ccc(-c3cccc(NS(=O)(=O)c4ccc(F)cc4)c3)cc2N1c1ccccc1 | > 1 µM
7 | O=C1COc2ccc(-c3cccc(NS(=O)(=O)c4ccc(F)cc4)c3)cc2N1 | > 1 µM
8 | COc1cccc(N2C(=O)COc3ccc(-c4cnc(OC)c(NS(=O)(=O)c5ccc(F)cc5)c4)cc32)c1 | > 1 µM
9 | O=C1COc2ccc(-c3cnc4ccccc4c3)cc2N1C1CCCCC1 | > 1 µM
10 | CC(C)N1C(=O)COc2ccc(-c3cccc(NS(=O)(=O)c4ccc(F)cc4)c3)cc21 | > 1 µM
11 | COc1ncc(-c2ccc3c(c2)N(c2ccc(C)cc2)C(=O)CO3)cc1NS(=O)(=O)c1ccc(F)cc1 | 0.017 µM

Each molecule was assayed on A-375 (assay: Antiproliferative activity against human A375 cells assessed as reduction in cell viability incubated for 72 hrs by MTT assay). Settings: A-375, 72 h.
Assay type: functional, cell-based

Row | Structure (SMILES) | IC50
12 | O=C1COc2ccc(-c3cnc(Cl)c(NS(=O)(=O)c4ccc(F)cc4)c3)cc2N1C1CCCCC1 | > 40 µM
13 | O=C1COc2ccc(-c3ccc(O)cc3)cc2N1C1CCCCC1 | > 40 µM
14 | O=C1COc2ccc(-c3cccc(NS(=O)(=O)c4ccc(F)cc4)c3)cc2N1c1ccc(Cl)cc1 | 32.5 µM
15 | O=C1COc2ccc(-c3cnc(Cl)c(NS(=O)(=O)c4ccc(F)cc4)c3)cc2N1 | > 40 µM
16 | CC(C)N1C(=O)COc2ccc(-c3cnc4ccccc4c3)cc21 | 39 µM
17 | O=C1COc2ccc(-c3cccc(NS(=O)(=O)c4ccc(F)cc4)c3)cc2N1c1ccccc1 | > 40 µM
18 | O=C1COc2ccc(-c3cccc(NS(=O)(=O)c4ccc(F)cc4)c3)cc2N1 | 20.1 µM
19 | COc1cccc(N2C(=O)COc3ccc(-c4cnc(OC)c(NS(=O)(=O)c5ccc(F)cc5)c4)cc32)c1 | > 40 µM
20 | O=C1COc2ccc(-c3cnc4ccccc4c3)cc2N1C1CCCCC1 | > 40 µM
21 | CC(C)N1C(=O)COc2ccc(-c3cccc(NS(=O)(=O)c4ccc(F)cc4)c3)cc21 | > 40 µM
22 | COc1ncc(-c2ccc3c(c2)N(c2ccc(C)cc2)C(=O)CO3)cc1NS(=O)(=O)c1ccc(F)cc1 | 12.9 µM

What follows are molecules tested against Phosphatidylinositol 4,5-bisphosphate 3-kinase catalytic subunit alpha isoform (Homo sapiens, UniProt P42336) (assay: Inhibition of recombinant human full length N-terminal GST-tagged PI3Kalpha (1 to 1068 residues)/PIK3R1 (1 to 724 residues) expressed in baculovirus expression system using PIP2 as substrate incubated for 1 hr by ADP-Glo assay). Settings: not given.
Chain of Phosphatidylinositol 4,5-bisphosphate 3-kinase catalytic subunit alpha isoform (P42336 whole entry, looked up, the tested form may be a part, canonical isoform): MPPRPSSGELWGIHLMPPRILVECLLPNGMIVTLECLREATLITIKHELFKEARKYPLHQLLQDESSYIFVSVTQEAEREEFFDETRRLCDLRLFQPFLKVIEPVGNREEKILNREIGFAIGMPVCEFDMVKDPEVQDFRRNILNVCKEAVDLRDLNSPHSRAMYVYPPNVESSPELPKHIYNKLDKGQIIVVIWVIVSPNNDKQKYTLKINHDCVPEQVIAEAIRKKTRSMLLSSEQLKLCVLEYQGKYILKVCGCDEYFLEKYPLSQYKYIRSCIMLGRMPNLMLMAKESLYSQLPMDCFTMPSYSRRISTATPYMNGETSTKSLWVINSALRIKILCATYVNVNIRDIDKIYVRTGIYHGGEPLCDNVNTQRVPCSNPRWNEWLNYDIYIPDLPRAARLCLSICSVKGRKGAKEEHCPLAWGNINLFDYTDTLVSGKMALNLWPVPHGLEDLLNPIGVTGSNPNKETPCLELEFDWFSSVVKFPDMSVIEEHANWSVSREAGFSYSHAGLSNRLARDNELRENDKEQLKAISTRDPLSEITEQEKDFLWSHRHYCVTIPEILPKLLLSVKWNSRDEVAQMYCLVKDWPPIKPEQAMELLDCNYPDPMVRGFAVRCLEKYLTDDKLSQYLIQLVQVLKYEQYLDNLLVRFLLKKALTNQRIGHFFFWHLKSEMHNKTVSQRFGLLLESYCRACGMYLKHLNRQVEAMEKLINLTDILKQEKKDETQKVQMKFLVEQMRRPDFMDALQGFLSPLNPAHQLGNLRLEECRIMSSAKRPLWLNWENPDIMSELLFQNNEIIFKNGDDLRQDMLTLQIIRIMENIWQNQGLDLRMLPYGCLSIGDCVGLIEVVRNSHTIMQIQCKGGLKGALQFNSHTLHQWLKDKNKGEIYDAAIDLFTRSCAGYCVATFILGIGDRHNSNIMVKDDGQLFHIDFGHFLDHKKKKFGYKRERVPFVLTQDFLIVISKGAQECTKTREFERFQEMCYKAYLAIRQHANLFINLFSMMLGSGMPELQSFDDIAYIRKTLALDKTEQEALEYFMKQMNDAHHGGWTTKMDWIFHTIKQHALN

Row | Structure (SMILES) | IC50
23 | O=C1COc2ccc(-c3cnc(Cl)c(NS(=O)(=O)c4ccc(F)cc4)c3)cc2N1C1CCCCC1 | 0.112 µM
24 | O=C1COc2ccc(-c3ccc(O)cc3)cc2N1C1CCCCC1 | > 10 µM
25 | O=C1COc2ccc(-c3cccc(NS(=O)(=O)c4ccc(F)cc4)c3)cc2N1c1ccc(Cl)cc1 | > 1 µM
26 | O=C1COc2ccc(-c3cnc(Cl)c(NS(=O)(=O)c4ccc(F)cc4)c3)cc2N1 | 0.115 µM
27 | CC(C)N1C(=O)COc2ccc(-c3cnc4ccccc4c3)cc21 | > 1 µM
28 | O=C1COc2ccc(-c3cccc(NS(=O)(=O)c4ccc(F)cc4)c3)cc2N1c1ccccc1 | > 1 µM
29 | O=C1COc2ccc(-c3cccc(NS(=O)(=O)c4ccc(F)cc4)c3)cc2N1 | > 1 µM
30 | COc1cccc(N2C(=O)COc3ccc(-c4cnc(OC)c(NS(=O)(=O)c5ccc(F)cc5)c4)cc32)c1 | > 1 µM
31 | O=C1COc2ccc(-c3cnc4ccccc4c3)cc2N1C1CCCCC1 | > 1 µM
32 | CC(C)N1C(=O)COc2ccc(-c3cccc(NS(=O)(=O)c4ccc(F)cc4)c3)cc21 | > 1 µM
33 | COc1ncc(-c2ccc3c(c2)N(c2ccc(C)cc2)C(=O)CO3)cc1NS(=O)(=O)c1ccc(F)cc1 | 0.012 µM

What follows are molecules tested against Serine/threonine-protein kinase mTOR (Homo sapiens, UniProt P42345) (assay: Inhibition of recombinant human N-terminal FLAG-tagged mTOR (1362 to end residues) using Ulight-4E-BP1 as substrate incubated for 30 mins by fluorescence assay). Settings: not given.

Row | Structure (SMILES) | IC50
34 | O=C1COc2ccc(-c3cnc(Cl)c(NS(=O)(=O)c4ccc(F)cc4)c3)cc2N1C1CCCCC1 | 0.29 µM
35 | O=C1COc2ccc(-c3ccc(O)cc3)cc2N1C1CCCCC1 | > 1 µM
36 | O=C1COc2ccc(-c3cccc(NS(=O)(=O)c4ccc(F)cc4)c3)cc2N1c1ccc(Cl)cc1 | > 1 µM
37 | O=C1COc2ccc(-c3cnc(Cl)c(NS(=O)(=O)c4ccc(F)cc4)c3)cc2N1 | 0.328 µM
38 | CC(C)N1C(=O)COc2ccc(-c3cnc4ccccc4c3)cc21 | > 1 µM
39 | O=C1COc2ccc(-c3cccc(NS(=O)(=O)c4ccc(F)cc4)c3)cc2N1c1ccccc1 | > 1 µM
40 | O=C1COc2ccc(-c3cccc(NS(=O)(=O)c4ccc(F)cc4)c3)cc2N1 | > 1 µM
41 | COc1cccc(N2C(=O)COc3ccc(-c4cnc(OC)c(NS(=O)(=O)c5ccc(F)cc5)c4)cc32)c1 | > 1 µM
42 | O=C1COc2ccc(-c3cnc4ccccc4c3)cc2N1C1CCCCC1 | > 1 µM
43 | CC(C)N1C(=O)COc2ccc(-c3cccc(NS(=O)(=O)c4ccc(F)cc4)c3)cc21 | > 1 µM
44 | COc1ncc(-c2ccc3c(c2)N(c2ccc(C)cc2)C(=O)CO3)cc1NS(=O)(=O)c1ccc(F)cc1 | 0.0138 µM

What follows are molecules tested on HCT-116 (assay: Antiproliferative activity against human HCT116 cells assessed as reduction in cell viability incubated for 72 hrs by MTT assay). Settings: HCT-116, 72 h.
Assay type: functional, cell-based

Row | Structure (SMILES) | IC50
45 | O=C1COc2ccc(-c3cnc(Cl)c(NS(=O)(=O)c4ccc(F)cc4)c3)cc2N1C1CCCCC1 | > 40 µM
46 | O=C1COc2ccc(-c3ccc(O)cc3)cc2N1C1CCCCC1 | > 40 µM
47 | O=C1COc2ccc(-c3cccc(NS(=O)(=O)c4ccc(F)cc4)c3)cc2N1c1ccc(Cl)cc1 | 23.9 µM
48 | O=C1COc2ccc(-c3cnc(Cl)c(NS(=O)(=O)c4ccc(F)cc4)c3)cc2N1 | > 40 µM
49 | CC(C)N1C(=O)COc2ccc(-c3cnc4ccccc4c3)cc21 | 23.2 µM
50 | O=C1COc2ccc(-c3cccc(NS(=O)(=O)c4ccc(F)cc4)c3)cc2N1c1ccccc1 | > 40 µM
51 | O=C1COc2ccc(-c3cccc(NS(=O)(=O)c4ccc(F)cc4)c3)cc2N1 | > 40 µM
52 | COc1cccc(N2C(=O)COc3ccc(-c4cnc(OC)c(NS(=O)(=O)c5ccc(F)cc5)c4)cc32)c1 | > 40 µM
53 | O=C1COc2ccc(-c3cnc4ccccc4c3)cc2N1C1CCCCC1 | > 40 µM
54 | CC(C)N1C(=O)COc2ccc(-c3cccc(NS(=O)(=O)c4ccc(F)cc4)c3)cc21 | 22.6 µM
55 | COc1ncc(-c2ccc3c(c2)N(c2ccc(C)cc2)C(=O)CO3)cc1NS(=O)(=O)c1ccc(F)cc1 | 22.7 µM

What follows are molecules tested on HepG2 (assay: cells). Settings: Homo sapiens, HepG2, 72 h.

Row | Structure (SMILES) | IC50
56 | O=C1COc2ccc(-c3cnc(Cl)c(NS(=O)(=O)c4ccc(F)cc4)c3)cc2N1C1CCCCC1 | > 40 µM
57 | O=C1COc2ccc(-c3ccc(O)cc3)cc2N1C1CCCCC1 | > 40 µM
58 | O=C1COc2ccc(-c3cccc(NS(=O)(=O)c4ccc(F)cc4)c3)cc2N1c1ccc(Cl)cc1 | 27.8 µM
59 | O=C1COc2ccc(-c3cnc(Cl)c(NS(=O)(=O)c4ccc(F)cc4)c3)cc2N1 | > 40 µM
60 | CC(C)N1C(=O)COc2ccc(-c3cnc4ccccc4c3)cc21 | > 40 µM
61 | O=C1COc2ccc(-c3cccc(NS(=O)(=O)c4ccc(F)cc4)c3)cc2N1c1ccccc1 | 30.3 µM
62 | O=C1COc2ccc(-c3cccc(NS(=O)(=O)c4ccc(F)cc4)c3)cc2N1 | > 40 µM
63 | COc1cccc(N2C(=O)COc3ccc(-c4cnc(OC)c(NS(=O)(=O)c5ccc(F)cc5)c4)cc32)c1 | > 40 µM
64 | O=C1COc2ccc(-c3cnc4ccccc4c3)cc2N1C1CCCCC1 | > 40 µM
65 | CC(C)N1C(=O)COc2ccc(-c3cccc(NS(=O)(=O)c4ccc(F)cc4)c3)cc21 | > 40 µM
66 | COc1ncc(-c2ccc3c(c2)N(c2ccc(C)cc2)C(=O)CO3)cc1NS(=O)(=O)c1ccc(F)cc1 | 28.3 µM

Each molecule was assayed on A549 (assay: cells). Settings: Homo sapiens, A549, 72 h.

Row | Structure (SMILES) | IC50
67 | O=C1COc2ccc(-c3cnc(Cl)c(NS(=O)(=O)c4ccc(F)cc4)c3)cc2N1C1CCCCC1 | 37.9 µM
68 | O=C1COc2ccc(-c3ccc(O)cc3)cc2N1C1CCCCC1 | > 40 µM
69 | O=C1COc2ccc(-c3cccc(NS(=O)(=O)c4ccc(F)cc4)c3)cc2N1c1ccc(Cl)cc1 | 31.6 µM
70 | O=C1COc2ccc(-c3cnc(Cl)c(NS(=O)(=O)c4ccc(F)cc4)c3)cc2N1 | > 40 µM
71 | CC(C)N1C(=O)COc2ccc(-c3cnc4ccccc4c3)cc21 | 24.6 µM
72 | O=C1COc2ccc(-c3cccc(NS(=O)(=O)c4ccc(F)cc4)c3)cc2N1c1ccccc1 | > 40 µM
73 | O=C1COc2ccc(-c3cccc(NS(=O)(=O)c4ccc(F)cc4)c3)cc2N1 | 32.1 µM
74 | COc1cccc(N2C(=O)COc3ccc(-c4cnc(OC)c(NS(=O)(=O)c5ccc(F)cc5)c4)cc32)c1 | 11.2 µM
75 | O=C1COc2ccc(-c3cnc4ccccc4c3)cc2N1C1CCCCC1 | > 40 µM
76 | CC(C)N1C(=O)COc2ccc(-c3cccc(NS(=O)(=O)c4ccc(F)cc4)c3)cc21 | 29.4 µM
77 | COc1ncc(-c2ccc3c(c2)N(c2ccc(C)cc2)C(=O)CO3)cc1NS(=O)(=O)c1ccc(F)cc1 | 5.87 µM

What follows are molecules tested on MCF7 (assay: cells). Settings: Homo sapiens, MCF7, 72 h.

Row | Structure (SMILES) | IC50
78 | O=C1COc2ccc(-c3cnc(Cl)c(NS(=O)(=O)c4ccc(F)cc4)c3)cc2N1C1CCCCC1 | > 40 µM
79 | O=C1COc2ccc(-c3ccc(O)cc3)cc2N1C1CCCCC1 | > 40 µM
80 | O=C1COc2ccc(-c3cccc(NS(=O)(=O)c4ccc(F)cc4)c3)cc2N1c1ccc(Cl)cc1 | 39.8 µM
81 | O=C1COc2ccc(-c3cnc(Cl)c(NS(=O)(=O)c4ccc(F)cc4)c3)cc2N1 | > 40 µM
82 | CC(C)N1C(=O)COc2ccc(-c3cnc4ccccc4c3)cc21 | 22.9 µM
83 | O=C1COc2ccc(-c3cccc(NS(=O)(=O)c4ccc(F)cc4)c3)cc2N1c1ccccc1 | > 40 µM
84 | O=C1COc2ccc(-c3cccc(NS(=O)(=O)c4ccc(F)cc4)c3)cc2N1 | 18.3 µM
85 | COc1cccc(N2C(=O)COc3ccc(-c4cnc(OC)c(NS(=O)(=O)c5ccc(F)cc5)c4)cc32)c1 | > 40 µM
86 | O=C1COc2ccc(-c3cnc4ccccc4c3)cc2N1C1CCCCC1 | > 40 µM
87 | CC(C)N1C(=O)COc2ccc(-c3cccc(NS(=O)(=O)c4ccc(F)cc4)c3)cc21 | 26 µM
88 | COc1ncc(-c2ccc3c(c2)N(c2ccc(C)cc2)C(=O)CO3)cc1NS(=O)(=O)c1ccc(F)cc1 | 15.4 µM

What follows are molecules tested on HeLa (assay: Antiproliferative activity against human HeLa cells assessed as reduction in cell viability incubated for 72 hrs by MTT assay). Settings: not given.
Assay type: functional, cell-based

Row | Structure (SMILES) | IC50
89 | O=C1COc2ccc(-c3cnc(Cl)c(NS(=O)(=O)c4ccc(F)cc4)c3)cc2N1C1CCCCC1 | 14.3 µM
90 | O=C1COc2ccc(-c3ccc(O)cc3)cc2N1C1CCCCC1 | > 40 µM
91 | O=C1COc2ccc(-c3cccc(NS(=O)(=O)c4ccc(F)cc4)c3)cc2N1c1ccc(Cl)cc1 | 35 µM
92 | O=C1COc2ccc(-c3cnc(Cl)c(NS(=O)(=O)c4ccc(F)cc4)c3)cc2N1 | 15.6 µM
93 | CC(C)N1C(=O)COc2ccc(-c3cnc4ccccc4c3)cc21 | 23.1 µM
94 | O=C1COc2ccc(-c3cccc(NS(=O)(=O)c4ccc(F)cc4)c3)cc2N1c1ccccc1 | 17.7 µM
95 | O=C1COc2ccc(-c3cccc(NS(=O)(=O)c4ccc(F)cc4)c3)cc2N1 | > 40 µM
96 | COc1cccc(N2C(=O)COc3ccc(-c4cnc(OC)c(NS(=O)(=O)c5ccc(F)cc5)c4)cc32)c1 | > 40 µM
97 | O=C1COc2ccc(-c3cnc4ccccc4c3)cc2N1C1CCCCC1 | 19.7 µM
98 | CC(C)N1C(=O)COc2ccc(-c3cccc(NS(=O)(=O)c4ccc(F)cc4)c3)cc21 | 22.7 µM
99 | COc1ncc(-c2ccc3c(c2)N(c2ccc(C)cc2)C(=O)CO3)cc1NS(=O)(=O)c1ccc(F)cc1 | 4.65 µM
